This note sets out measurements from patent publication US8871767B2, “2-arylimidazo[1,2-B]pyridazine, 2-phenylimidazo[1,2-A]pyridine, and 2-phenylimidazo[1,2-A]pyrazine derivatives” (Hengrui (USA) Ltd., priority 2010, dated 2014).

The first test relates to Hedgehog pathway activation (GLi-luciferase reporter) in Shh Light II reporter cells. Kind of test: Hedgehog pathway activation on Shh Light II reporter cells measured by luciferase activity. The following applies: Mus musculus, Shh Light II, hShh activation, read-out: Shh (IC50, inhibition of Hedgehog pathway activation). It is filed as cell-based. In short, it runs like this:
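Shh Light II reporter cells carrying a hedgehog-responsive GLi-luciferase reporter were stimulated either with 500 nM SAG, a direct Smoothened agonist, or with conditioned media containing human Sonic Hedgehog (hShh). Test compounds were evaluated for blocking this pathway activation, quantified by luciferase activity. Cell viability was monitored in parallel with the Celltiter-Blue® assay.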
As for `Cc1ccc(-c2cn3nc(-c4cccnc4C(F)(F)F)ccc3n2)cc1C(=O)O` [Example 481, 2-methyl-5-(6-(2-(trifluoromethyl)pyridin-3-yl)imidazo[1,2-b]pyridazin-2-yl)benzoic acid], the concentration for half-maximal inhibition (IC50) (usually the concentration at which inhibition is half-maximal) is > 10000 nM. Same read-out and setting: next, `Cc1ccc(-c2cn3nc(-c4cccnc4C(F)(F)F)ccc3n2)cc1C(N)=O` [Example 482, 2-methyl-5-(6-(2-(trifluoromethyl)pyridin-3-yl)imidazo[1,2-b]pyridazin-2-yl)benzamide]: > 10000 nM.

As for `Cc1ccc(-c2cn3nc(-c4c[nH]nc4C)ccc3n2)cc1NC(=O)C(C)(C)C` [compound 500], the IC50 worked out at 450 nM.

With `Cc1ccc(-c2cn3nc(-c4c(C)n[nH]c4C)ccc3n2)cc1NC(=O)C(C)(C)C` [compound 501], the IC50 came out at 1000 nM. Consider `Cc1ccc(-c2cn3nc(-c4c(C)noc4C)ccc3n2)cc1NC(=O)C(C)(C)C` [compound 502], for which the 50% inhibitory concentration (IC50) amounted to 580 nM. Still for that read-out and setting: next, `Cc1ccc(-c2cn3nc(-c4c(C)nn(C)c4C)ccc3n2)cc1NC(=O)C(C)(C)C` [compound 503]: 330 nM.

`CC(=O)Nc1ccc(-c2ccc3nc(-c4ccc(C)c(NC(=O)C(C)(C)C)c4)cn3n2)c(C)n1` [compound 504, N-(5-(6-(6-acetamido-2-methylpyridin-3-yl)imidazo[1,2-b]pyridazin-2-yl)-2-methylphenyl)pivalamide]: the 50% inhibitory concentration (IC50) came out at 360 nM. Take `CC(=O)Nc1ccc(-c2ccc3nc(-c4ccc(C)c(NC(=O)C(C)(C)C)c4)cn3n2)cn1` [compound 505, N-(5-(6-(6-acetamidopyridin-3-yl)imidazo[1,2-b]pyridazin-2-yl)-2-methylphenyl)pivalamide]: the IC50 came to 990 nM.

As for `COC(=O)c1csc(-c2cc(-c3cn4nc(-c5cccnc5C(F)(F)F)ccc4n3)ccc2C)n1` [compound 506], the IC50 amounted to 1340 nM.

With `Cc1ccc(-c2cn3nc(-c4cccnc4C(F)(F)F)ccc3n2)cc1-c1c(C)noc1C` [compound 507], the 50% inhibitory concentration (IC50) turned out to be 2500 nM. For the compound `COC(=O)CCCCC(=O)Nc1ccc(-c2ccc3nc(-c4ccc(C)c(NC(=O)C(C)(C)C)c4)cn3n2)c(C(F)(F)F)c1` [compound 510], the IC50 was 379 nM. Turning to `CC(=O)Nc1ncc(-c2cc(-c3cn4nc(-c5cccnc5C(F)(F)F)ccc4n3)ccc2C)s1` [compound 513], the IC50 was found to be 376 nM. On the same count and under the same terms, to `Cc1ccc(-c2cn3nc(-c4cccnc4C(F)(F)F)ccc3n2)cc1N(C)C(=O)C(C)(C)C` [compound 514, N-methyl-N-(2-methyl-5-(6-(2-(trifluoromethyl)pyridin-3-yl)imidazo[1,2-b]pyridazin-2-yl)phenyl)pivalamide] belongs 392 nM. Still for that read-out and setting: next, `COC(=O)CN(C(=O)C(C)(C)C)c1cc(-c2cn3nc(-c4cccnc4C(F)(F)F)ccc3n2)ccc1C` [compound 515, methyl 2-(N-(2-methyl-5-(6-(2-(trifluoromethyl)pyridin-3-yl)imidazo[1,2-b]pyridazin-2-yl)phenyl)pivalamido)acetate]: 911 nM; `COC(=O)CCCCCCN(C(=O)C(C)(C)C)c1cc(-c2cn3nc(-c4cccnc4C(F)(F)F)ccc3n2)ccc1C` [compound 516, methyl 7-(N-(2-methyl-5-(6-(2-(trifluoromethyl)pyridin-3-yl)imidazo[1,2-b]pyridazin-2-yl)phenyl)pivalamido)heptanoate]: 1710 nM. With `Cc1ccc(-c2cn3nc(Cl)ccc3n2)cc1NC(=O)C1(C)CC1` [compound 517], the half-maximal inhibitory concentration (IC50) was > 10000 nM.

Regarding `Cc1ccc(-c2cn3nc(-c4ccc(O)cc4)ccc3n2)cc1NC(=O)C(C)(C)C` [compound 519], the IC50 was determined as 1700 nM. For the compound `Cc1ccc(-c2cn3nc(-c4cccnc4C(F)(F)F)ccc3n2)cc1-c1nc(C(C)(C)C)cs1` [compound 520], the 50% inhibitory concentration (IC50) came out at 492 nM. For the compound `Cc1ccc(-c2cn3nc(-c4ccc(C(=O)O)cc4)ccc3n2)cc1NC(=O)C(C)(C)C` [compound 521], the half-maximal inhibitory concentration (IC50) was > 10000 nM. Turning to `CC(=O)c1ccc(-c2ccc3nc(-c4ccc(C)c(NC(=O)C(C)(C)C)c4)cn3n2)cc1` [compound 522], the IC50 is 1300 nM. Still for that read-out and setting: to `Cc1ccc(-c2cn3nc(-c4ccc(C(=O)O)cc4F)ccc3n2)cc1NC(=O)C(C)(C)C` [compound 523] belongs 9630 nM.

For `Cc1ccc(-c2cn3nc(-c4ccc(C(=O)N(C)C)cc4)ccc3n2)cc1NC(=O)C(C)(C)C` [compound 524], the half-maximal inhibitory concentration (IC50) turned out to be 479 nM. Turning to `CNC(=O)c1ccc(-c2ccc3nc(-c4ccc(C)c(NC(=O)C(C)(C)C)c4)cn3n2)cc1` [compound 525], the IC50 amounted to 441 nM. The same measure, in the same setting: next, `Cc1ccc(-c2cn3nc(-c4ccc(C(N)=O)cc4)ccc3n2)cc1NC(=O)C(C)(C)C` [compound 526]: 783 nM; `CC(=O)c1cccc(-c2ccc3nc(-c4ccc(C)c(NC(=O)C(C)(C)C)c4)cn3n2)c1` [compound 527]: 1050 nM; `Cc1ccc(-c2cn3nc(-c4cccc(C(=O)O)c4)ccc3n2)cc1NC(=O)C(C)(C)C` [compound 528]: 5850 nM. On to `Cc1ccc(-c2cn3nc(-c4ccc(NC(=O)CCCCCCC(=O)NO)cc4C(F)(F)F)ccc3n2)cc1NC(=O)C(C)(C)C` [compound 530], for which the IC50 stood at 6680 nM. Same read-out and setting: to `Cc1ccc(-c2cn3nc(-c4ccc(S(N)(=O)=O)cc4)ccc3n2)cc1NC(=O)C(C)(C)C` [compound 534] belongs 1450 nM; to `Cc1ccc(-c2cn3nc(-c4cncc(C(F)(F)F)c4)ccc3n2)cc1NC(=O)C(C)(C)C` [compound 536, N-(2-methyl-5-(6-(5-(trifluoromethyl)pyridin-3-yl)imidazo[1,2-b]pyridazin-2-yl)phenyl)pivalamide], 370 nM.

As to `Cc1ccc(-c2cn3nc(-c4ccc(C(N)=O)nc4)ccc3n2)cc1NC(=O)C(C)(C)C` [compound 537], the IC50 was 734 nM. Regarding `Cc1ccc(-c2cn3nc(-c4ccc(C(N)=O)cn4)ccc3n2)cc1NC(=O)C(C)(C)C` [compound 538, 6-(2-(4-methyl-3-pivalamidophenyl)imidazo[1,2-b]pyridazin-6-yl)nicotinamide], the half-inhibitory concentration (IC50) is 430 nM. Still for that read-out and setting: to `Cc1ccc(-c2cn3nc(-c4ccc(-c5nnco5)cc4)ccc3n2)cc1NC(=O)C(C)(C)C` [compound 539] belongs 350 nM; to `Cc1ccc(-c2cn3nc(-c4ccc(C(N)=NO)cc4)ccc3n2)cc1NC(=O)C(C)(C)C` [compound 546], 1130 nM; to `Cc1ccc(-c2cn3nc(-c4ccc(O)cc4F)ccc3n2)cc1NC(=O)C(C)(C)C` [compound 547], 793 nM. The same measure, in the same setting: next, `Cc1ccc(-c2cn3nc(-c4ccc(O)cc4Cl)ccc3n2)cc1NC(=O)C(C)(C)C` [compound 548]: 763 nM; `Cc1nc(-c2ccc(-c3ccc4nc(-c5ccc(C)c(NC(=O)C(C)(C)C)c5)cn4n3)cc2)no1` [compound 549]: 204 nM. Take `Cc1ccc(-c2cn3nc(-c4ccc(N)cc4)ccc3n2)cc1NC(=O)C(C)(C)C` [compound 550]: the IC50 came out at 418 nM. On the same count and under the same terms, to `CCOC(=O)C=Cc1cccc(-c2ccc3nc(-c4ccc(C)c(NC(=O)C(C)(C)C)c4)cn3n2)c1` [compound 551] belongs 364 nM; to `CCOC(=O)C=Cc1ccc(-c2ccc3nc(-c4ccc(C)c(NC(=O)C(C)(C)C)c4)cn3n2)cc1` [compound 552], 356 nM; to `Cc1ccc(-c2cn3nc(-c4ccc(C=CC(=O)O)cc4)ccc3n2)cc1NC(=O)C(C)(C)C` [compound 555], 346 nM. The same measure, in the same setting: to `Cc1ccc(-c2cn3nc(-c4ccc(NC(=O)CCCCCCC(=O)O)cc4)ccc3n2)cc1NC(=O)C(C)(C)C` [compound 561] belongs 2300 nM. Same read-out and setting: next, `Cc1ccc(-c2cn3nc(-c4ccc(NC(=O)CCCCCCC(=O)NO)cc4)ccc3n2)cc1NC(=O)C(C)(C)C` [compound 563]: 622 nM; `CCOC(=O)C=Cc1ccc2nc(-c3ccc(C)c(NC(=O)C(C)(C)C)c3)cn2n1` [compound 572]: 596 nM; `Cc1ccc(-c2cn3nc(-c4ccc(C#N)cc4C)ccc3n2)cc1NC(=O)C(C)(C)C` [compound 574]: 364 nM.

In the case of `Cc1ccc(-c2cn3nc(-c4cccc(N)n4)ccc3n2)cc1NC(=O)C(C)(C)C` [compound 575, N-(5-(6-(6-aminopyridin-2-yl)imidazo[1,2-b]pyridazin-2-yl)-2-methylphenyl)pivalamide], the 50% inhibitory concentration (IC50) was determined as 599 nM. Same read-out and setting: next, `Cc1ccc(-c2cn3nc(-c4ccc(C(N)=NO)cc4C)ccc3n2)cc1NC(=O)C(C)(C)C` [compound 576]: 155 nM; `Cc1ccc(-c2cn3nc(-c4cc(C(N)=NO)ccc4C)ccc3n2)cc1NC(=O)C(C)(C)C` [compound 577]: 63 nM; `Cc1ccc(-c2cn3nc(C=CC(=O)NO)ccc3n2)cc1NC(=O)C(C)(C)C` [compound 578]: 9280 nM. Still for that read-out and setting: next, `Cc1ccc(-c2cn3nc(-c4cc(C=CC(=O)NO)ccc4Cl)ccc3n2)cc1NC(=O)C(C)(C)C` [compound 579]: 317 nM; `Cc1ccc(-c2cn3nc(-c4cccc(NC(=O)CCCCCCC(=O)NO)n4)ccc3n2)cc1NC(=O)C(C)(C)C` [compound 580, N1-hydroxy-N8-(6-(2-(4-methyl-3-pivalamidophenyl)imidazo[1,2-b]pyridazin-6-yl)pyridin-2-yl)octanediamide]: 1320 nM. With `Cc1ccc(-c2cn3nc(-c4cccnc4C#N)ccc3n2)cc1NC(=O)C(C)(C)C` [compound 581, N-(5-(6-(2-cyanopyridin-3-yl)imidazo[1,2-b]pyridazin-2-yl)-2-methylphenyl)pivalamide], the IC50 amounted to 82 nM. Still for that read-out and setting: next, `COC(=O)c1ccc(-c2ccc3nc(-c4ccc(C)c(NC(=O)C(C)(C)C)c4)cn3n2)cc1` [compound 582]: 1140 nM.

Still in this test, the particulars now being: hShh activation, read-out: Shh (IC50, inhibition of Hedgehog pathway activation).
Regarding `Cc1ccc(-c2cn3nc(-c4cccnc4C(F)(F)F)ccc3n2)cc1NC(=O)CCCCCCC(=O)O` [compound 553, 8-((2-methyl-5-(6-(2-(trifluoromethyl)pyridin-3-yl)imidazo[1,2-b]pyridazin-2-yl)phenyl)amino)-8-oxooctanoic acid], the IC50 came to 701 nM.
